Experimental data taken from patent publication US20120009590A1, “DEVICE AND NON-TOXIC COMPOSITIONS AND METHODS FOR PERMEABILIZATION OF DROSOPHILA EMBRYOS” (The University of Vermont and State Agriculture College, priority 2009, published 2012).

What was measured:
Canton S embryos = assay: Scoring of cephalic furrow formation and germband elongation in embryos; format: in vivo, Drosophila melanogaster
Procedure: Effects of EPS and cycloheximide or other agents on embryo development were scored using contemporaneous DIC optics and fluorescent visualization. Canton S embryos were collected from a 3 hr laying and aged one additional hour at 25° C. Embryos were treated with 1:10 EPS in H2O for 30-60 seconds followed by washing and immersion in 1 mM rhodamine B dye in PBS for 5 minutes with rocking. Embryos were washed four times in PBS and immersed in PBS containing 10 μM cycloheximide on a Kiehart slide. Embryos were allowed to develop an additional 1.5 hours at ambient temperature (˜23° C.). […] Variable treatments included omission of EPS exposure or omission of cycloheximide or other toxic agent. Each condition was assayed in three independent preparations of embryos with >180 embryos scored for each treatment condition.
We next sought to determine the feasibility of using an early embryogenesis endpoint as an indicator of teratogenic effects. In separate experiments using flies carrying the GFP reporter for the Dorsal protein we determined that CHX had profound effects on the morphogenetic movements of the embryo in the first 3-5 hours of development (see FIG. 13 below). During these stages formation of the cephalic furrow and germband elongation serve as landmarks that are easily identifiable under differential interference contrast (DIC) microscopy (see FIG. 8). […]

Drosophila embryos = assay: Midgut development by blue yolk auto-fluorescence at Stage 16; format: in vivo, Drosophila melanogaster; conditions: EPS-treated 3 hr old embryos, 10 μM, 18° C., 20 hours
Procedure: The embryo develops into a larva in 22-24 hours at 25° C. (refer to FIG. 9A). […] We investigated a variety of morphological events leading up to stage 17 for potentially easily identifiable endpoints. Through monitoring development under fluorescence time-lapse imaging we observed the highly dynamic pattern of blue fluorescence emitted from the auto-fluorescence of yolk proteins in the embryo. At preblastodem stages a relatively uniformly dispersed blue fluorescence is seen across the embryo (FIG. 11A). Between 3-6 hours of development this pattern changes drastically as the yolk proteins are pushed aside during germband elongation (refer to FIG. 9A). […] Blue fluorescence is seen to consolidate in the lumen of the gut initially as one large mass in the newly fused midgut (FIG. 11A, 12 hrs). […] The compartmentalized strong blue fluorescence in the midgut makes normally developed Stage 16/17 embryos easily discernable under fluorescence (FIG. 11A, 14 hrs).
We next tested the utility of this endpoint to examine small molecule toxicity by exposing permeabilized embryos to cycloheximide (CHX), a potent protein synthesis inhibitor and teratogen. EPS-treated 3 hr old embryos were incubated in the presence (FIG. 11 D, E) or absence (FIG. 11A,B,C) of 10 μM CHX at 18° C. for 20 hours (equivalent to 10 hours at 25° C.) and examined under blue fluorescence. […]

Dorsal-GFP embryos = assay: Dorsal-GFP reporter in preblastoderm embryos; format: in vivo, Drosophila melanogaster; conditions: EPS treated preblastoderm embryos
Excerpt: We turned to the Dorsal-GFP transgenic fusion construct reporter to further examine the effects of the teratogen CHX. The Dorsal protein is the Drosophila NF-κB homolog which is central to signaling that establishes the dorsal-ventral axis in the embryo. Dorsal protein localizes to ventral cell nuclei where it acts to define the D/V axis.
Using this same Dorsal-GFP construct we see dynamic distribution of Dorsal-GFP in and out of the ventral nuclei of an EPS treated pre-blastoderm embryos (FIG. 13A, B). […] In many cases these early embryos are seen to stall in development. […] Embryos affected at slightly later stages show irregular nuclear Dorsal accumulation (FIG. 13D) as well as varied sizes in the nuclei present (FIG. 13E). It is interesting to note that these deformities occur more frequently in the anterior portion of the embryo, consistent with the gradient of dye dispersal seen in EPS treated embryos.

engrailed-GFP embryos = conditions: EPS-permeabilized embryos
Procedure: Incubations of permeabilized embryos were carried out in two types of chambers. Longer-term incubations (6-48 hours) were done in a modified nitex basket (see FIG. 1). The basket-reservoir apparatus was covered with a tight fitting cap to limit evaporation and was incubated at 18° C. for continued development of the embryo. Short term incubations <3 hours were done in a slide chamber (see FIG. 2A). […] Incubations for early embryonic endpoints were done at room temperature and for later developmental endpoint (e.g. gut development and engrailed patterning) at 18° C.
Drug treatments were done by additions to the PBS solution reservoir during incubation in either the slide or basket chambers. Drugs used were: cycloheximide (Fluka 01810, MW=281.35, 50 mM stock in H2O), colchicine (Biomol Labs T118, MW=[…] in H2O), methylmercury chloride (Aldrich 442534, MW=251, 50 mM stock in DMSO), cytochalasin D (Sigma C8273, MW=507.6, 5 mM stock in DMSO) and cyclophosphamide (LKT C9609, MW=279.1, 100 mM stock in H2O).
The engrailed gene encodes a homeodomain transcription factor that is highly conserved in all metazoans. Engrailed is a segment polarity gene whose expression marks the […] boundary of each segment in the embryo. Engrailed also function in neural development to define developing brain regions and regulate growth of axons.

Miscibility with water = format: physicochemical; conditions: without surfactant
Procedure: The presence of at least one surfactant is required to allow for the formation of a stable emulsion for sufficient time to allow for permeabilization of the embryos (i.e., at least about 10 minutes).

With `C[C@@H]1C[C@@H]([C@H](O)CC2CC(=O)NC(=O)C2)C(=O)[C@@H](C)C1` [CHX, cycloheximide] the cephalic furrow formation (Canton S embryos; 2.5 hr old permeabilized embryos, 10 μM, 1.5 hours) was “disruption of cephalic furrow formation”, the “EPS treated embryos with abnormal formation of the cephalic furrow” value (Canton S embryos; CHX 10 μM, EPS treated embryos) was “more than 80%” and the “gut development (blue fluorescence pattern)” value (Drosophila embryos) was “induced gut malformation”. For the same compound, the “pattern of nuclear divisions and Dorsal-GFP distribution” value (Dorsal-GFP embryos) was “gross deformities in the pattern of nuclear divisions and Dorsal distribution”.
For `C=C1[C@@H](C)[C@H]2[C@H](Cc3ccccc3)NC(=O)[C@]23[C@H](OC(C)=O)/C=C/[C@@](C)(O)C(=O)[C@@H](C)C/C=C/[C@H]3[C@@H]1O` [Cytochalasin D, cytochalasin D], the “engrailed-GFP expression pattern and embryo development” value (engrailed-GFP embryos) was “stalling of embryo development at Stage 11 with gaps in the Engrailed band of cells in several segments”.
With `C=C(C)C1CC=C(C)CC1` [Limonene, D-Limonene] the miscibility with water (Miscibility with water) was “not miscible with water”.
With `[CH3][Hg][Cl]` [MeHg, methylmercury chloride] the “engrailed-GFP expression pattern and embryo development” value (engrailed-GFP embryos) was “stalls the embryo at Stage 11 and disrupts the regularity of engrailed banding pattern”.
For `O=P1(N(CCCl)CCCl)NCCCO1` (centres unmarked) [cyclophosphamide], the “engrailed-GFP expression pattern and embryo development” value (engrailed-GFP embryos) was “overall shortening of the embryo and generates breaks in the bands of engrailed expressing cells”.
